How the values were obtained:
[1] = biological target: human GABAA α5β2γ1 receptor (Homo sapiens (Human), UniProt P31644+Q8N1C3); experiment: Radioligand binding assay, competition for [3H]RO7239181, γ1-containing GABAA subtypes
h-GABA-A α2β2γ1 = h-GABA-A α2β2γ1 (Homo sapiens (Human), UniProt P47869+Q8N1C3); experiment: Two-electrode voltage clamp electrophysiology in Xenopus oocytes expressing GABAA receptors; assay type: cell-based; conditions: for Efficacy (GABA) %: % modulation of GABA EC20 = 100*(Fold increase−1), compound at about 30-fold its Ki α2β2γ1; for Fold increase h-GABA-A α2β2γ1 oocyte @ 30-fold Ki: Xenopus oocytes, GABA EC20, compound at about 30-fold its Ki α2β2γ1
Summary of the method: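 Xenopus oocytes injected with receptor subunit RNA and recorded 3–5 days later by two-electrode voltage clamp at −80 mV, room temperature, pH 7.4. GABA applied at EC20 for 1.5 min, with and without test compound. Efficacy = extremum of the point-by-point ratio of the two responses, expressed as % modulation of GABA EC20; ≥3 oocytes per concentration.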

Compound	Ki [1] [nM]	Efficacy (GABA) % (h-GABA-A α2β2γ1) [%]	Fold increase h-GABA-A α2β2γ1 oocyte @ 30-fold Ki (h-GABA-A α2β2γ1)
Cc1nnc2n1-c1sc3c(c1C(c1c(F)cccc1F)=N[C@H]2C)COC[C@H](C)O3 [Example 30, (7S,15S)-9-(2,6-difluorophenyl)-3,7,15-trimethyl-13,16-dioxa-18-thia-2,4,5,8-tetrazatetracyclo[8.8.0.02,6.011,17]octadeca-1(10),3,5,8,11(17)-pentaene]	3.28	150	2.50
CCc1nc2n(n1)-c1sc3c(c1C(c1c(F)cccc1F)=N[C@H]2C)COC[C@H](C)O3 [Example 49, (7S,15S)-9-(2,6-difluorophenyl)-4-ethyl-7,15-dimethyl-13,16-dioxa-18-thia-2,3,5,8-tetrazatetracyclo[8.8.0.02,6.011,17]octadeca-1(10),3,5,8,11(17)-pentaene]	3.32	131	2.31
Cc1nc2n(n1)-c1sc3c(c1C(c1c(F)cccc1F)=N[C@H]2C)CCCCC3 [Example 20, (7S)-9-(2,6-difluorophenyl)-4,7-dimethyl-18-thia-2,3,5,8-tetrazatetracyclo[8.8.0.02,6.011,17]octadeca-1(10),3,5,8,11(17)-pentaene]	0.98	76	1.76
Cc1nnc2n1-c1sc3c(c1C(c1c(F)cccc1F)=N[C@H]2C)CCCC[C@@H]3F (single isomer, unassigned) [Example 12]	2.65	185	2.85
C[C@@H]1N=C(c2c(F)cccc2F)c2c(sc3c2CCCCC3)-n2c(C3CC3)nnc21 [Example 3, (7S)-3-cyclopropyl-9-(2,6-difluorophenyl)-7-methyl-18-thia-2,4,5,8-tetrazatetracyclo[8.8.0.02,6.011,17]octadeca-1(10),3,5,8,11(17)-pentaene]	3.69	91	1.91
Cc1nnc2n1-c1sc3c(c1C(c1c(F)cccc1F)=N[C@H]2C)CCC(F)C(F)C3 (single isomer, unassigned) [Example 34]	20.9	134	2.34
Cc1nc2n(n1)-c1sc3c(c1C(c1c(F)cccc1F)=N[C@H]2C)COCCC3 [Example 57, (7S)-9-(2,6-difluorophenyl)-4,7-dimethyl-13-oxa-18-thia-2,3,5,8-tetrazatetracyclo[8.8.0.02,6.011,17]octadeca-1(10),3,5,8,11(17)-pentaene]	1.53	73	1.73
Cc1nnc2n1-c1sc3c(c1C(c1c(F)cccc1F)=N[C@H]2C)CC[C@@H](F)CC3 (single isomer, unassigned) [Example 15]	8	144	2.44
C[C@@H]1N=C(c2c(F)cccc2F)c2c(sc3c2COC[C@H](C)O3)-n2nc(C(=O)NCCO)nc21 [Example 53, (7S,15S)-9-(2,6-difluorophenyl)-N-(2-hydroxyethyl)-7,15-dimethyl-13,16-dioxa-18-thia-2,3,5,8-tetrazatetracyclo[8.8.0.02,6.011,17]octadeca-1(10),3,5,8,11(17)-pentaene-4-carboxamide]	6.2	237	3.37
Cc1nnc2n1-c1sc3c(c1C(c1c(F)cccc1F)=N[C@H]2C)CCCCC3O (mixture of isomers) [Example 9, (7S,16RS)-9-(2,6-difluorophenyl)-3,7-dimethyl-18-thia-2,4,5,8-tetrazatetracyclo[8.8.0.02,6.011,17]octadeca-1(10),3,5,8,11(17)-pentaen-16-ol]	2.79	96	1.96
Cc1nnc2n1-c1sc3c(c1C(c1c(F)cccc1F)=NC2)CCCCC3 [Example 1, 9-(2,6-difluorophenyl)-3-methyl-18-thia-2,4,5,8-tetrazatetracyclo[8.8.0.02,6.011,17]octadeca-1(10),3,5,8,11(17)-pentaene]	1.4	64	1.64
CCc1nnc2n1-c1sc3c(c1C(c1c(F)cccc1F)=N[C@H]2C)COCCO3 [Example 42, (7S)-9-(2,6-difluorophenyl)-3-ethyl-7-methyl-13,16-dioxa-18-thia-2,4,5,8-tetrazatetracyclo[8.8.0.02,6.011,17]octadeca-1(10),3,5,8,11(17)-pentaene]	2.9	137	2.37
Cc1nc2n(n1)-c1sc3c(c1C(c1c(F)cccc1F)=N[C@H]2C)COCCO3 [Example 28, (7S)-9-(2,6-difluorophenyl)-4,7-dimethyl-13,16-dioxa-18-thia-2,3,5,8-tetrazatetracyclo[8.8.0.02,6.011,17]octadeca-1(10),3,5,8,11(17)-pentaene]	0.89	40	1.40
C[C@@H]1N=C(c2c(F)cccc2F)c2c(sc3c2CCCCC3)-n2ccc(=O)nc21 [Example 7, (8S)-10-(2,6-difluorophenyl)-8-methyl-19-thia-2,6,9-triazatetracyclo[9.8.0.02,7.012,18]nonadeca-1(11),3,6,9,12(18)-pentaen-5-one]	2.24	169	2.69
Cc1nnc2n1-c1sc3c(c1C(c1c(F)cccc1F)=N[C@H]2C)CC[C@@H](F)CO3 [Example 56, (7S,14R)-9-(2,6-difluorophenyl)-14-fluoro-3,7-dimethyl-16-oxa-18-thia-2,4,5,8-tetrazatetracyclo[8.8.0.02,6.011,17]octadeca-1(10),3,5,8,11(17)-pentaene]	6.9	147	2.47
C[C@@H]1N=C(c2c(F)cccc2F)c2c(sc3c2COCCO3)-n2nc(C(=O)NC[C@](C)(O)C(F)(F)F)nc21 [Example 47, (7S)-9-(2,6-difluorophenyl)-7-methyl-N-[(2S)-3,3,3-trifluoro-2-hydroxy-2-methyl-propyl]-13,16-dioxa-18-thia-2,3,5,8-tetrazatetracyclo[8.8.0.02,6.011,17]octadeca-1(10),3,5,8,11(17)-pentaene-4-carboxamide]	4.43	89	1.89

From patent publication US20240294543A1, “CYCLOHEPTA-THIENO-DIAZEPINE DERIVATIVES AS GABA A GAMMA1 PAM” (Hoffmann-La Roche Inc., priority 2021, published 2024)
